Data taken from patent US20160158149A1, “Inhalable Pharmaceutical Compositions and the Inhaler Devices Containing Them” (priority 2013, published 2016).

How the values were obtained:
[1] = Fine particle dose (FPD) of the inhaler assembly, invention versus conventional; assay type: physicochemical; details: aerodynamic diameter 1 to 5 μm, assembly of the invention relative to conventional disk-shaped inhaler
Experimental: (§1) Pharmacokinetic data of an assembly for an inhaler according to the different embodiments of the invention described above together with the different variants of the pharmaceutical composition of the invention including salmeterol xinafoate and fluticasone proprionate were determined in comparison to the pharmacokinetic data of a conventional assembly including a disk-shaped inhaler housing a mixture of salmeterol xinafoate and fluticasone proprionate. Such a disk shaped inhaler is for example described in the PCT application WO 2001/97886 A1.
(§2) In particular, the fine particle dose (FPD), which is the amount of particles with an aerodynamic diameter of between 1 to 5 μm, the area under the curve (AUC), corresponds to the integral of the plasma concentration of an administered pharmaceutical drug substance versus an interval of definite time and Cmax, which is the maximum concentration measured for a pharmaceutical in the blood of test persons after it was administrated and prior to the administration of a second dose, were determined.

[2] = Pharmacokinetic data (AUC, Cmax) after inhalation, invention versus conventional assembly; assay type: in vivo, test persons
Experimental: as §1, §2

Q: Which results are given for `CCC(=O)O[C@]1(C(=O)SCF)[C@H](C)C[C@H]2[C@@H]3C[C@H](F)C4=CC(=O)C=C[C@]4(C)[C@@]3(F)[C@@H](O)C[C@@]21C` [Fluticasone, fluticasone proprionate]?
A: Ratio invention/conventional FPD 1-5 μm [1]: 0.93; Ratio invention/conventional Point estimate Cmax ([2]; maximum concentration in blood of test persons, assembly of the invention relative to conventional disk-shaped inhaler): 1.66; Ratio invention/conventional Point estimate AUC ([2]; plasma concentration versus time, assembly of the invention relative to conventional disk-shaped inhaler): 1.42

Q: Which “Ratio invention/conventional FPD 1-5 μm” value [1] does the source give for `OCc1cc(C(O)CNCCCCCCOCCCCc2ccccc2)ccc1O` (stereo not drawn) [Salmeterol, salmeterol xinafoate] here?
A: 0.90

Q: What about the “Ratio invention/conventional Point estimate AUC” value ([2]; human, in vivo) of the same molecule?
A: 1.25

Q: What about the “Ratio invention/conventional Point estimate Cmax” value ([2]; human, in vivo, inhaled or intranasal) of the same molecule?
A: 1.69
